One test addresses T1, sGC enzyme (Homo sapiens, UniProt Q02108+Q02153).
T1 construct: sGC enzyme activity values in HEK cells, determined by the GloSensor assay; host or cells: HEK293 cells stably expressing GloSensor 40F cGMP biosensor
T1 sequence (Q02153 1-619): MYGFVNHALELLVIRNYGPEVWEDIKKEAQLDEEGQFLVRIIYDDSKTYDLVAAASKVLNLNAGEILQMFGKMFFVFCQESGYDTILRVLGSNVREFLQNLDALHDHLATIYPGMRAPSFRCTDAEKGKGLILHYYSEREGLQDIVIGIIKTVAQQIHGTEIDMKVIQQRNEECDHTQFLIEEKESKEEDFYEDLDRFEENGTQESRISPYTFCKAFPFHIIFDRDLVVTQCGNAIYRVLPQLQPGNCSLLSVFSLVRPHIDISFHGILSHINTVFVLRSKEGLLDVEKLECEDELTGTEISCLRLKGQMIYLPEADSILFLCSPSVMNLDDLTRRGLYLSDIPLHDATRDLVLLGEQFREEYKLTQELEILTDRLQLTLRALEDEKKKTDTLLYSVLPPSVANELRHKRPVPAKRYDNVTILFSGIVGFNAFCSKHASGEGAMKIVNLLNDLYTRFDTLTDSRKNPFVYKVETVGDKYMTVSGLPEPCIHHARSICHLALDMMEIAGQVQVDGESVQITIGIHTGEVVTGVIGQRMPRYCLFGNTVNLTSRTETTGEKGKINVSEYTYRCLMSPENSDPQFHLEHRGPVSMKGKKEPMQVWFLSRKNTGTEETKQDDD
T1 sequence (Q02108 1-690): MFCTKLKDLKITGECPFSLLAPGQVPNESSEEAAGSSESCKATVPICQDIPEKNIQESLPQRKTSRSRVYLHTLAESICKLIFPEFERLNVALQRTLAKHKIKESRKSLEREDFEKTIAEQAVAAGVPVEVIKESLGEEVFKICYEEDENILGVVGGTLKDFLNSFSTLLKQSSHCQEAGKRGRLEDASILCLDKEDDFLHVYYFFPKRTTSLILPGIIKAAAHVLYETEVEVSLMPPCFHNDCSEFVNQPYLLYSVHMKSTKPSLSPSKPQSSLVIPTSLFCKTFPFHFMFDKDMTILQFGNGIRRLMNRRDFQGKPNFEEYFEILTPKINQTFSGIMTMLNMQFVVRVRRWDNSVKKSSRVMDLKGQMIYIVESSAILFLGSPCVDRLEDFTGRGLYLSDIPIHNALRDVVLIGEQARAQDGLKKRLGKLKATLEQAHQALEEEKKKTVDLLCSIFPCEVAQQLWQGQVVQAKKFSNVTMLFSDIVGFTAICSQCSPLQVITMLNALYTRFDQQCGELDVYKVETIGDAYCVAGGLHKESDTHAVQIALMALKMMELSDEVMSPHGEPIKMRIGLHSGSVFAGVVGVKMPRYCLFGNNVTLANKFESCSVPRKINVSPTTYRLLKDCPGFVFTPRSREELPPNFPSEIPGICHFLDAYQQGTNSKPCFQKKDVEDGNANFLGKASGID
The test can be described thus: cGMP GloSensor cell-based assay, synergy with NO at varied DETA-NO (Example 2b). The note with it: for EC50: HEK293 GloSensor cells, read-out: EC50 (Absolute EC50). As to the method:
HEK293 cells expressing GloSensor™ 40F cGMP (Part No: CS182801, Promega) were used to evaluate the synergy of the test compounds with NO. Multiple assays where run in which the concentrations of test compound also well as the concentration of Diethylenetriamine NONOate (DETA-NONOate) were varied to determine the synergy of the test compound with NO. Test compounds and Diethylenetriamine NONOate (DETA-NONOate or DETA-NO) were diluted to 3 mM (20×) in serum-free CO2 independent medium and serially diluted at 4× dilutions to create 5× dose curve from which 10 ul was added to the wells (x μM concentration for test compound solution and y μM concentration for DETA-NO solution; wherein x is one of the following final concentrations: 30000 nM, 7500 nM, 1875 nM, 468.8 nM, 117.2 nM, 29.29 nM, 7.320 nM, 1.830 nM, 0.460 nM, 0.114 nM, and 0.029 nM and y is one of the following final concentrations: 30 μM, 10 μM, 3.33 μM 1.11 μM, and 0 μM).
Following the analysis as described above, Table 2b summarizes results obtained for Compound I-1 with the various DETA-NO amount in this assay.

A further test deals with cGMP in mouse brain. Nature of the test: Compound-induced cGMP in mouse brain (Example 9). In kind it is in vivo. The note with it: 30 min after dosing. As to the method:
Objective. To determine the effect of different doses of a compound of the invention in cGMP response and compound concentration in different areas of the mouse brain (cortex, hippocampus, cerebellum and striatum) and compound concentration in blood
Protocol. Mice (n=7-8 per experimental condition) were dosed PO with vehicle (1% hydroxypropyl methyl cellulose, 0.2% Tween80, 0.5% methyl cellulose) or 0.3, 1, 3 or 10 mg/Kg of Compound I-1 prepared in vehicle. Thirty minutes after dosing, under isoflurane anesthesia, the mouse was decapitated and the brain was removed and placed into an ice-cold petri dish containing slushy dissection solution (saturated with 95% O2·5% CO2). Using an ice-cold spatula, the brain was transferred to mouse brain matrix with coronal spacing for slicing at 1 mm intervals, as shown in FIG. 5 (not to scale, just a scheme).
The sliced brain was transferred back into petri dish containing slushy dissection solution with IBMX 0.5 mM (saturated with 95% O2/5% CO2). The dorsal striatum is dissected first, followed by the hippocampus second, followed by the medial prefrontal cortex third, and lastly, the cerebellum fourth. After each region is dissected the dissected tissue was immediately placed into an eppendorf that was placed on dry ice for the previous 30 minutes. Small pieces of tissue froze very fast, within 10 seconds approximately. After all regions were placed in an eppendorf, the eppendorfs were then snap frozen by immersion into liquid nitrogen. The whole blood sample was collected from the trunk area using mitra tips. Tissue samples were stored in the −80° C. and mitra tips at room temperature. cGMP and compound levels in brain and blood were determined by LC/MS; protein quantification of brain samples was determined using BCA protein assay kit.

Like-named read-outs stand apart in the source and are kept apart here. Marks after values point to notes of the source that are not given here.

The term EC50 denotes the concentration giving half of the maximal effect.

Consider `Fc1ccccc1Cc1nc(-c2nc(C(F)(F)F)n[nH]2)cn2ccnc12` [Compound I-1, 8-(2-fluorobenzyl)-6-(3-(trifluoromethyl)-1H-1,2,4-triazol-5-yl)imidazo[1,2-a]pyrazine], for which the concentration for a half-maximal effect (EC50) at sGC enzyme ([DETA-NO] 0 uM) was 100 to 1000 nM; on sGC enzyme ([DETA-NO] 1.11 uM) it was 100 to 1000 nM; on sGC enzyme ([DETA-NO] 3.33 uM), 100 to 1000 nM; at sGC enzyme ([DETA-NO] 10 uM) it was 100 to 1000 nM; on sGC enzyme ([DETA-NO] 30 uM) it was at most 100 nM. Moreover, the “synergy with NO to stimulate sGC” value at sGC enzyme (varied DETA-NO concentrations) is given as “synergizes with NO”. Moreover, the “CEREBELLUM nM cGMP/μg protein” value in the test on cGMP in mouse brain (0.3 MPK PO) is listed as 0.3199 nM cGMP/μg protein; in the test with cGMP in mouse brain (1 MPK PO), 0.4577 nM cGMP/μg protein; in the test on cGMP in mouse brain (3 MPK PO), 0.7524 nM cGMP/μg protein; in the test on cGMP in mouse brain (10 MPK PO), 1.796**** nM cGMP/μg protein. For the same compound, the “CORTEX nM cGMP/μg protein” value in the test with cGMP in mouse brain (0.3 MPK PO) is on record as 0.07761 nM cGMP/μg protein; with cGMP in mouse brain (1 MPK PO), 0.08064 nM cGMP/μg protein; in the test with cGMP in mouse brain (3 MPK PO) it was 0.1081 nM cGMP/μg protein; in the test on cGMP in mouse brain (10 MPK PO) it was 0.1734* nM cGMP/μg protein. Moreover, the “Hippocampus nM cGMP/μg protein” value in the test with cGMP in mouse brain (0.3 MPK PO) is given as 0.04255 nM cGMP/μg protein; in the test on cGMP in mouse brain (1 MPK PO), 0.04302 nM cGMP/μg protein; in the test on cGMP in mouse brain (3 MPK PO) it was 0.0519 nM cGMP/μg protein; in the test on cGMP in mouse brain (10 MPK PO), 0.1171** nM cGMP/μg protein. Besides, the “STRIATUM nM cGMP/μg protein” value in the test with cGMP in mouse brain (0.3 MPK PO) is 0.02261 nM cGMP/μg protein; in the test on cGMP in mouse brain (1 MPK PO) it was 0.03124 nM cGMP/μg protein; in the test with cGMP in mouse brain (3 MPK PO), 0.03719 nM cGMP/μg protein; with cGMP in mouse brain (10 MPK PO), 0.04612* nM cGMP/μg protein.
